From patent US7994279B2, “Altered peptide ligands of GAD65” (The University of Toledo, priority 2006, dated 2011)

Legend:
[1] = system: HLA.A2; experiment: Binding of GAD65 546-554 fragments to human MHC class I
Text: Treatments which reduce GAD65 response can ameliorate Type 1 diabetes in NOD mice (spontaneous responses in NOD and NOD.HLA.A2 mice; the GAD65 546-554 fragments bind Kd and HLA.A2). Unlike the GAD65 molecule, the APL compositions can target a specific set of T cells and reduce the risk of accidental activation of pathogenic T cells.
The mouse (Kd) and human (HLA-A2) are associated with increased risk of Type 1 diabetes.

[2] = system: CTL clones; experiment: IFN release by CTL clones (FIG. 7, Table I); assay type: cell-based; set-up: Percent Reduction of IFN release: concentration or dose not given beside the values
[3] = system: CTL clone 14.86; experiment: THF release by CTL clone 14.86 (FIG. 8, Table 2); assay type: cell-based; conditions: for Percent Reduction of THF: clone 14.86
Text: ID No.:11] decreases THF of CTL clone 14.86.

| Substance | binding to HLA.A2 [1] | Percent Reduction of IFN release ([2]; clone 14.69, A375) | Percent Reduction of IFN release ([2]; clone 14.69, B7) | Percent Reduction of IFN release ([2]; clone 14.81, A375) | Percent Reduction of IFN release ([2]; clone 14.81, B7) | Percent Reduction of IFN release ([2]; clone 14.86, A375) | Percent Reduction of IFN release ([2]; clone 14.86, B7) | IFN release (effect in words) ([2]; various CLT clones) | THF of CTL clone (effect in words) ([3]; CTL clone 14.86) | Percent Reduction of THF ([3]; A375) | Percent Reduction of THF ([3]; B7) |
| --- | --- | --- | --- | --- | --- | --- | --- | --- | --- | --- | --- |
| GAD65 546-554: natural 546-554 fragment of glutamic acid decarboxylase GAD65; probably SEQ.ID No. 2 (SYQPLGDKV) | bind |  |  |  |  |  |  |  |  |  |  |
| S-Y-Q-P-L-G-D-K-A (SYQPLGDKA) [APL-70] |  | 41% | 27% | 31% | 23% | 16% | 17% | decreases IFN release | decreases THF | 37% | 34% |
